Measured values from patent US20250235496A1, “USE OF BELLIDIFOLIN (BEL) AND/OR BEL-CONTAINING EXTRACT IN PREPARATION OF ANTIDEPRESSANT PRODUCT” (priority 2024, published 2025).
Structures can show the parent of a compound that is named as a salt.

Legend:
HT22 cells = assay: CORT-induced HT22 cell viability, BEL; assay type: cell-based; conditions: Mus musculus, HT-22, 250 μM CORT, 24 h, model = 100.00
mice = assay: Acute toxicity study of BEL in mice; assay type: in vivo
[1] = tested on: CORT-induced Kunming mouse model; assay: In vivo antidepressant study of BEL: body weight, diet, water intake; set-up: species or system Kunming (KM) mice; conditions: 21 d, CORT-induced mice
Procedure: After one week of adaptive feeding of experimental mice, 10 mice were randomly selected from 150 mice as a normal group, and the mice in the normal group were not treated in any way. […] The dosing volume was changed once a week according to the weight of the mice, and the mice were subcutaneously administered in the groin of the hind limb between 9:00 and 11:00 am every day. During the modeling, the weight, diet, and water intake of the mice were recorded, and the relevant data were counted once a week until the modeling was completed. During the modeling, the mice were subjected to behavioral analysis. 4 behavioral test designs were designed: FST, TST, SPT, and NSFT. […] There were 5 mice/cage in the normal group and 5 mice/cage in the model group. […] Behavioral experiments were conducted once a week, and the serum 5-HT and CORT levels of mice were recorded. The results were shown in Tables 3 to 5 and FIG. 12A to FIG. 14B.

[2] = tested on: CORT-induced Kunming mouse model; assay: In vivo antidepressant study of BEL: behavioral tests (FST, TST, SPT, NSFT); set-up: species or system Kunming (KM) mice; conditions: CORT-induced mice
5-HT = assay: Serum 5-HT level, BEL study; assay type: in vivo; conditions: CORT-induced mice
Procedure: (§1) Behavioral experiments were conducted once a week, and the serum 5-HT and CORT levels of mice were recorded.

CORT = assay: Serum CORT level, BEL study; assay type: in vivo; conditions: CORT-induced mice
Procedure: as §1

[3] = tested on: neurons in the hippocampus of mice; assay: H & E staining and immunofluorescence histochemistry of hippocampus; assay type: in vivo; conditions: 21 d of administration, CORT-induced mice
Text: [0170](2) After 21 d of drug administration, the hippocampus of mice in each treatment group was stained with H & E, and the proliferation of neurons in the hippocampus of mice was detected by immunofluorescence histochemistry.
(§2) Compared with the normal group, the hippocampus structure of the model group mice was abnormal, the cells were wrinkled and then irregularly arranged. After administration, the hippocampus structure returned to normal and the cells were arranged regularly. […] [0172](3) After 21 d of drug administration, brain tissues of mice in each treatment group were collected for Golgi staining.

hippocampal neurons = assay: Golgi staining of brain tissue: neuron dendrite length and dendritic spine density; assay type: in vivo, mice; conditions: 21 d; for Neuron dendrite length, Maximum / Neuron dendrite length, Mean / Neuron dendrite length, Minimum: mouse hippocampus
Text: as §2
• (4) After 21 d of drug administration, the dendritic spine density of neurons in the hippocampus of mice was counted. […] The effect intensity was as follows: 10 mg/kg BEL treatment group >20 mg/kg BEL treatment group BEL 40 mg/kg BEL treatment group.

[4] = Mass spectrometry imaging of mouse brain; assay type: in vivo, mice; conditions: mass spectrometry imaging, 21 d
CREB = CREB / p-CREB protein expression in hippocampus (immunoblot); assay type: in vivo, mice; conditions: 21 d
Text: (§3) There was no significant difference in the expression of p-CREB protein among the groups.

5-HT1A = 5-HT1A protein expression in hippocampus (immunoblot); assay type: in vivo, mice; conditions: 10 and 20 mg/kg, 21 d, vs model group
Text: as §3

5-HT2A = 5-HT2A protein expression in hippocampus (immunoblot); assay type: in vivo, mice; conditions: 21 d, vs model group
Text: as §3

Arg1 = Arg1 protein expression in hippocampus (immunoblot); assay type: in vivo, mice; conditions: 10 mg/kg, 21 d, vs model group
Text: as §3

[5] = serum, 214 mg/kg gavage, 3 times within 24 h

SMILES: COc1cc(O)c2c(=O)c3c(O)ccc(O)c3oc2c1 [BEL, bellidifolin]
- viability at 0.0625 µM (HT22 cells): 103 ± 5.03%
- viability at 0.125 µM (HT22 cells): 107 ± 2.64%
- viability at 0.25 µM (HT22 cells): 115 ± 3.93%
- viability at 0.5 µM (HT22 cells): 120 ± 3.97%
- viability at 1 µM (HT22 cells): 139 ± 5.34%
- Observation during 14-d period (mice; 214 mg/kg gavage 3 times within 24 h, subsequent 14-d observation): did not show any abnormalities
- Toxic side effects (weight, brain, liver, kidneys) (mice; 214 mg/kg gavage, 3 times within 24 h): no toxic side effects on mice
- Weight (mice; 214 mg/kg gavage, 3 times within 24 h, 14 d observation): 39.18 ± 3.94 g
- Observation after treatment (mice; 214 mg/kg gavage, 20 min after the second treatment): slight tremors, which disappeared after 2 min
- ALT (mice; [5]): 26.85 ± 6.22 U/L
- AST (mice; [5]): 48.73 ± 4.15 U/L
- CRE (mice; [5]): 23.20 ± 5.69 µmol/L
- Body weight ([1]; 10 mg/kg/d gavage): 37.19 ± 3.35 g
- Diet ([1]; 10 mg/kg/d gavage): 4.02 ± 0.03 g/day
- Water intake ([1]; 10 mg/kg/d gavage): 4.72 ± 0.42 g/day
- Body weight ([1]; 20 mg/kg/d gavage): 37.33 ± 3.30 g
- Diet ([1]; 20 mg/kg/d gavage): 4.48 ± 0.45 g/day
- Water intake ([1]; 20 mg/kg/d gavage): 4.87 ± 0.99 g/day
- Body weight ([1]; 40 mg/kg/d gavage): 36.31 ± 3.72 g
- Diet ([1]; 40 mg/kg/d gavage): 5.14 ± 1.00 g/day
- Water intake ([1]; 40 mg/kg/d gavage): 6.82 ± 0.45 g/day
- FST immobility time ([2]; 10 mg/kg/d gavage): 145.00 ± 36.40 s
- NSFT start time of eating ([2]; 10 mg/kg/d gavage): 42.75 ± 31.56 s
- SPT sugar water preference ([2]; 10 mg/kg/d gavage): 13.72 ± 0.30 %
- TST immobility time ([2]; 10 mg/kg/d gavage): 27.50 ± 16.05 s
- FST immobility time ([2]; 20 mg/kg/d gavage): 127.14 ± 36.38 s
- NSFT start time of eating ([2]; 20 mg/kg/d gavage): 57.14 ± 35.77 s
- SPT sugar water preference ([2]; 20 mg/kg/d gavage): 12.41 ± 3.32%
- TST immobility time ([2]; 20 mg/kg/d gavage): 47.22 ± 35.19 s
- FST immobility time ([2]; 40 mg/kg/d gavage): 193.33 ± 25.98 s
- NSFT start time of eating ([2]; 40 mg/kg/d gavage): 38.78 ± 22.73 s
- SPT sugar water preference ([2]; 40 mg/kg/d gavage): 8.75 ± 0.18%
- TST immobility time ([2]; 40 mg/kg/d gavage): 98.75 ± 66.35 s
- Serum 5-HT (5-HT; 10 mg/kg/d gavage): 134.29 ± 12.34 ng/mL
- Serum 5-HT (5-HT; 20 mg/kg/d gavage): 216.11 ± 3.34 ng/mL
- Serum 5-HT (5-HT; 40 mg/kg/d gavage): 133.42 ± 30.76 ng/mL
- Serum CORT (CORT; 10 mg/kg/d gavage): 107.08 ± 8.16 ng/mL
- Serum CORT (CORT; 20 mg/kg/d gavage): 111.82 ± 8.27 ng/mL
- Serum CORT (CORT; 40 mg/kg/d gavage): 93.63 ± 11.48 ng/mL
- Proliferation of neurons in the hippocampus (immunohistofluorescence) [3]: could promote the proliferation of neurons in the mouse hippocampus
- Neuron dendrite length, Maximum (hippocampal neurons; 10 mg/kg/d gavage): 1853.00 μm
- Neuron dendrite length, Mean (hippocampal neurons; 10 mg/kg/d gavage): 75.66 ± 60.55 μm
- Neuron dendrite length, Minimum (hippocampal neurons; 10 mg/kg/d gavage): 5.86 μm
- Neuron dendrite length, Maximum (hippocampal neurons; 20 mg/kg/d gavage): 2297.92 μm
- Neuron dendrite length, Mean (hippocampal neurons; 20 mg/kg/d gavage): 140.64 ± 73.11 μm
- Neuron dendrite length, Minimum (hippocampal neurons; 20 mg/kg/d gavage): 6.32 μm
- Neuron dendrite length, Maximum (hippocampal neurons; 40 mg/kg/d gavage): 194.06 μm
- Neuron dendrite length, Mean (hippocampal neurons; 40 mg/kg/d gavage): 51.73 ± 33.73 μm
- Neuron dendrite length, Minimum (hippocampal neurons; 40 mg/kg/d gavage): 6.04 μm
- Dendritic spine density of hippocampal neurons (hippocampal neurons; 10, 20 and 40 mg/kg, vs model group): could significantly increase the dendritic spine density
- Number and length of neurons in the hippocampus (Golgi staining) (hippocampal neurons; 10 and 20 mg/kg): increased the number of neurons and the length of neurons
- Distribution in brain [4]: mainly distributed in the hypothalamus, amygdala, hippocampus, and cortex of mice
- CREB protein level in hippocampus (CREB; 10 mg/kg, reduced level in model group): could significantly reverse this phenomenon
- Phosphorylation level of CREB in hippocampus (CREB; 40 mg/kg, vs model group): significantly decreased
- Expression of 5-HT1A protein in hippocampus (5-HT1A): could significantly promote the expression of 5-HT1A protein
- Expression of 5-HT2A protein in hippocampus (5-HT2A): had no effect on the expression of 5-HT2A
- Expression of Arg1 protein in hippocampus (Arg1): could significantly reverse the decrease in Arg1 expression

SMILES: CNCCC(Oc1ccc(C(F)(F)F)cc1)c1ccccc1 (stereo not shown) [Flu, fluoxetine hydrochloride, reference compound]
- viability at 0.0625 µM (HT22 cells): 103 ± 4.06%
- viability at 0.125 µM (HT22 cells): 108 ± 3.95%
- viability at 0.25 µM (HT22 cells): 111 ± 1.64%
- viability at 0.5 µM (HT22 cells): 112 ± 2.77%
- viability at 1 µM (HT22 cells): 123 ± 8.39%
- Body weight ([1]; 20 mg/kg/d gavage): 27.03 ± 1.74 g
- Diet ([1]; 20 mg/kg/d gavage): 3.90 ± 0.39 g/day
- Water intake ([1]; 20 mg/kg/d gavage): 4.00 ± 0.97 g/day
- FST immobility time ([2]; 20 mg/kg/d gavage): 178.50 ± 36.52 s
- NSFT start time of eating ([2]; 20 mg/kg/d gavage): 84.50 ± 32.69 s
- SPT sugar water preference ([2]; 20 mg/kg/d gavage): 13.28 ± 0.56 %
- TST immobility time ([2]; 20 mg/kg/d gavage): 71.43 ± 40.80 s
- Serum CORT (CORT; 20 mg/kg/d gavage): 152.77 ± 11.25 ng/mL
- Neuron dendrite length, Maximum (hippocampal neurons; 20 mg/kg/d gavage): 180.19 μm
- Neuron dendrite length, Mean (hippocampal neurons; 20 mg/kg/d gavage): 54.65 ± 32.76 μm
- Neuron dendrite length, Minimum (hippocampal neurons; 20 mg/kg/d gavage): 6.57 μm

SMILES: CN(C)CCCN1c2ccccc2CCc2ccccc21 [Imi, imipramine hydrochloride, reference compound]
- Body weight ([1]; 20 mg/kg/d gavage): 34.41 ± 1.80 g
- Diet ([1]; 20 mg/kg/d gavage): 4.38 ± 0.45 g/day
- Water intake ([1]; 20 mg/kg/d gavage): 4.92 ± 0.40 g/day
- FST immobility time ([2]; 20 mg/kg/d gavage): 163.00 ± 38.09 s
- NSFT start time of eating ([2]; 20 mg/kg/d gavage): 65.11 ± 32.90 s
- SPT sugar water preference ([2]; 20 mg/kg/d gavage): 8.32 ± 0.12%
- TST immobility time ([2]; 20 mg/kg/d gavage): 76.43 ± 46.52 s
- Serum 5-HT (5-HT; 20 mg/kg/d gavage): 130.24 ± 13.65 ng/mL
- Serum CORT (CORT; 20 mg/kg/d gavage): 143.19 ± 12.30 ng/mL
- Neuron dendrite length, Maximum (hippocampal neurons; 20 mg/kg/d gavage): 172.10 μm
- Neuron dendrite length, Mean (hippocampal neurons; 20 mg/kg/d gavage): 37.66 ± 25.07 μm
- Neuron dendrite length, Minimum (hippocampal neurons; 20 mg/kg/d gavage): 5.95 μm
